The source made the active and inactive calls. The calls are words filed in the database; no cut-off is given here.
How the values were obtained:
[1] = tested on: Huh-7; assay: Cytotoxicity against human HuH7 cells by MTT assay
[2] = tested on: HepG2; assay: Cytotoxicity against human HepG2 cells by MTT assay
[3] = biological target: Serine/threonine-protein kinase B-raf (Homo sapiens, UniProt P15056, V600E); assay: Inhibition of B-RAF V600E mutant (unknown origin) using MEK1 as substrate
[4] = tested on: HUVEC; assay: cells; conditions: Homo sapiens, 72 h
Description: (§1) Antiproliferative activity against HUVEC after 72 hrs by MTT assay

[5] = biological target: Vascular endothelial growth factor receptor 2 (Homo sapiens) (UniProt P35968); assay: Inhibition of VEGFR-2 (unknown origin) at 10 uM after 1 hr by luminescence assay
[6] = biological target: Vascular endothelial growth factor receptor 2 (Homo sapiens) (UniProt P35968); assay: Inhibition of recombinant KDR (unknown origin) at 10 uM
[7] = biological target: Platelet-derived growth factor receptor beta (Homo sapiens) (UniProt P09619); assay: Inhibition of recombinant PDGFRbeta (unknown origin) at 10 uM
[8] = biological target: T1, 3-phosphoinositide-dependent protein kinase 1 (Homo sapiens) (UniProt O15530); assay: Inhibition of recombinant PDPK-1 (unknown origin) at 10 uM
T1 sequence (whole entry): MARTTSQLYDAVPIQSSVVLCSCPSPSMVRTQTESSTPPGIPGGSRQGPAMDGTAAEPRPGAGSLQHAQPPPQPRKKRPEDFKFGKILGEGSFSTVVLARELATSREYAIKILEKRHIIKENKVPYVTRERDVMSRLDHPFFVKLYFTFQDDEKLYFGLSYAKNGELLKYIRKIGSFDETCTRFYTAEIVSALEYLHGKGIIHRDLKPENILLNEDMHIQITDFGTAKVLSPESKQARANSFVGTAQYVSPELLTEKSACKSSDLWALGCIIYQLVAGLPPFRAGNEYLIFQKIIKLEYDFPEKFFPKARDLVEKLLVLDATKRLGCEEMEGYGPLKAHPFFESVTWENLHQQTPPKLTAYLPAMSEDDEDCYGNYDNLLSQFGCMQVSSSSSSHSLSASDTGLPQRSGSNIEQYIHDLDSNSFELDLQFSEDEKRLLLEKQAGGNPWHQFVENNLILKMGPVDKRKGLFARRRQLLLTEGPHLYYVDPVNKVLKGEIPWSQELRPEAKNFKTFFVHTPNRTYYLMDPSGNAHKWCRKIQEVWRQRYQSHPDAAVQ

[9] = biological target: Receptor-type tyrosine-protein kinase FLT3 (Homo sapiens) (UniProt P36888); assay: Inhibition of recombinant FLT-3 (unknown origin) at 10 uM
[10] = biological target: Platelet-derived growth factor receptor alpha (Homo sapiens) (UniProt P16234); assay: Inhibition of recombinant PDGFRalpha (unknown origin) at 10 uM
[11] = biological target: Tyrosine-protein kinase ABL2 (Homo sapiens) (UniProt P42684); assay: Inhibition of recombinant ABL-2 (unknown origin) at 10 uM
[12] = biological target: Fibroblast growth factor receptor 2 (Homo sapiens) (UniProt P21802); assay: Inhibition of recombinant FGFR-2 (unknown origin) at 10 uM
[13] = biological target: Glycogen synthase kinase-3 alpha (Homo sapiens) (UniProt P49840); assay: Inhibition of recombinant GSK3alpha (unknown origin) at 10 uM
[14] = biological target: Vascular endothelial growth factor receptor 1 (Homo sapiens) (UniProt P17948); assay: Inhibition of recombinant FLT-1 (unknown origin) at 10 uM
[15] = biological target: RAF proto-oncogene serine/threonine-protein kinase (Homo sapiens, UniProt P04049); assay: Inhibition of full length recombinant c-RAF (unknown origin) using MEK1 as substrate after 1 hr by luminescence assay
[16] = biological target: Hepatocyte growth factor receptor (Homo sapiens) (UniProt P08581); conditions: at 10 µM
Description: Inhibition of recombinant MET (unknown origin) at 10 uM

[17] = tested on: HUVEC
Description: as §1

[18] = biological target: T2, Bifunctional epoxide hydrolase 2 (Homo sapiens, UniProt P34913); assay: Inhibition of human recombinant soluble epoxide hydrolase assessed as cyano(6-methoxy-naphthalen-2-yl)methyl trans-[(3-phenyloxyran-2-yl)methyl] carbonate conversion to 6-methoxy-2-naphthaldehyde preincubated for 5 mins prior to substrate addition by fluorescence assay
T2 sequence (P34913 whole entry): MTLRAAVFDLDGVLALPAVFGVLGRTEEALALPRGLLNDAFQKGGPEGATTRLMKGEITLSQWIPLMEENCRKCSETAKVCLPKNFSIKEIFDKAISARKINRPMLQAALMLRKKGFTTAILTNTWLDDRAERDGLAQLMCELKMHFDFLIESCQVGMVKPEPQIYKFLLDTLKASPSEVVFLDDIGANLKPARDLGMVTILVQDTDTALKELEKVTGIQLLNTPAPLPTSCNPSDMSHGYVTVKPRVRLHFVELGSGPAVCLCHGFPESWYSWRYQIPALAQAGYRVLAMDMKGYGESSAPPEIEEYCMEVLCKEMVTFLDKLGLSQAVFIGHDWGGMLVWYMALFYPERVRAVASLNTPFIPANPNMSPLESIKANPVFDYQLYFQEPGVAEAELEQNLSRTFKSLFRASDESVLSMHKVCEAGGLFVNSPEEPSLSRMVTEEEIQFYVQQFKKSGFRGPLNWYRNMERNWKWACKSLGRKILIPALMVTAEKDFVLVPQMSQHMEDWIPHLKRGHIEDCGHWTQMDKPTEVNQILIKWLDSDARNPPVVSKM

Sequence of RAF proto-oncogene serine/threonine-protein kinase (P04049 whole entry): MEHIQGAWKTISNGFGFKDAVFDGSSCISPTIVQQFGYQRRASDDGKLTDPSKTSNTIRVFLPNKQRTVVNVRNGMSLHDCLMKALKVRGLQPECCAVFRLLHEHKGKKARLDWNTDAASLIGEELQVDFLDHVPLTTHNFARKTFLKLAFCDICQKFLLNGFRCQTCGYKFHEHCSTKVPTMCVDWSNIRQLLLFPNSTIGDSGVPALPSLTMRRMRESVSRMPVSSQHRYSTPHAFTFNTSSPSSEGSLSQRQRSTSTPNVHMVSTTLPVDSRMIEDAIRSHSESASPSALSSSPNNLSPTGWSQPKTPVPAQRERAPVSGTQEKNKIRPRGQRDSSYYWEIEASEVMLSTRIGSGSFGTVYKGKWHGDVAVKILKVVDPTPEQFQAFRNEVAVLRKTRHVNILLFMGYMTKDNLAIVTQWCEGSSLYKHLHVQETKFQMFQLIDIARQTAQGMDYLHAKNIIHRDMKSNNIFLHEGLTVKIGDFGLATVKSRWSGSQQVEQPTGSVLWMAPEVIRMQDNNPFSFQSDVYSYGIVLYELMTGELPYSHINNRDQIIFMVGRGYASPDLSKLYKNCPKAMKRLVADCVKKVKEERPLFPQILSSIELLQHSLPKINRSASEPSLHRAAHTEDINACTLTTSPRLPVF
Sequence of Vascular endothelial growth factor receptor 2 (Homo sapiens) (P35968 whole entry): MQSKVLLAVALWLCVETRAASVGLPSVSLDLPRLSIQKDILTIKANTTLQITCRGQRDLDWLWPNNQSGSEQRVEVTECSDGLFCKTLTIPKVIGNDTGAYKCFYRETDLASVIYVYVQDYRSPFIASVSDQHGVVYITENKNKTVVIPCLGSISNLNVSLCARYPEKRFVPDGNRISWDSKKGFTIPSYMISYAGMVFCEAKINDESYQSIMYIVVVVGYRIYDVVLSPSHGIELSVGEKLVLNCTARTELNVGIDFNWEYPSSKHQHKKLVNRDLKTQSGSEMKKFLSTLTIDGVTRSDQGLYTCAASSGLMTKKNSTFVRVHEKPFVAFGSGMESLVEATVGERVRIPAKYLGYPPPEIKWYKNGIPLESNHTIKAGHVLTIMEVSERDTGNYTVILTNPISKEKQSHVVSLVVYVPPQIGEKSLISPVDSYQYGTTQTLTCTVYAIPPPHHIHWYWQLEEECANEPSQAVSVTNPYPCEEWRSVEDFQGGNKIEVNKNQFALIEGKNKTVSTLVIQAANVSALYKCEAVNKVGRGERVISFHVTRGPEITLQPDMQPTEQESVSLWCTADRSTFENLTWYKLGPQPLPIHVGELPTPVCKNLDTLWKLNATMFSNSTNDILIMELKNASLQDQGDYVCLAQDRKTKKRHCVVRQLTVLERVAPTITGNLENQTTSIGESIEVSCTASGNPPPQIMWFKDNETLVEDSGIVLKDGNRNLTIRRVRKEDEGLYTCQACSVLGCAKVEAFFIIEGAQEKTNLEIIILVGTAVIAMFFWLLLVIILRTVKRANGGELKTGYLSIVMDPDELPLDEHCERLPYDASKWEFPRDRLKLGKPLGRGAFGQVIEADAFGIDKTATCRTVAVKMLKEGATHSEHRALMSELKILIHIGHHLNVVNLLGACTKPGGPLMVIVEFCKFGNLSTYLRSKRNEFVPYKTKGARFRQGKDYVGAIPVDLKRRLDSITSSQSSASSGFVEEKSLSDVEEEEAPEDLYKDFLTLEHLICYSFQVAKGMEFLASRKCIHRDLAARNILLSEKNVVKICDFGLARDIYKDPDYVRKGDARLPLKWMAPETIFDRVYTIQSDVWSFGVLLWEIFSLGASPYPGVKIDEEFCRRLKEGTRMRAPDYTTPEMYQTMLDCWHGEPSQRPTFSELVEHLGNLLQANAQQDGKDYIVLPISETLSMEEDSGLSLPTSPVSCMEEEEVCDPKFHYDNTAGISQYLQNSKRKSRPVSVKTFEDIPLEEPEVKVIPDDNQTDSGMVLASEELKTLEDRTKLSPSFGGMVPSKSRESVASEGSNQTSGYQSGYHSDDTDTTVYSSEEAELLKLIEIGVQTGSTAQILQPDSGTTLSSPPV
Sequence of Platelet-derived growth factor receptor beta (Homo sapiens) (P09619 whole entry): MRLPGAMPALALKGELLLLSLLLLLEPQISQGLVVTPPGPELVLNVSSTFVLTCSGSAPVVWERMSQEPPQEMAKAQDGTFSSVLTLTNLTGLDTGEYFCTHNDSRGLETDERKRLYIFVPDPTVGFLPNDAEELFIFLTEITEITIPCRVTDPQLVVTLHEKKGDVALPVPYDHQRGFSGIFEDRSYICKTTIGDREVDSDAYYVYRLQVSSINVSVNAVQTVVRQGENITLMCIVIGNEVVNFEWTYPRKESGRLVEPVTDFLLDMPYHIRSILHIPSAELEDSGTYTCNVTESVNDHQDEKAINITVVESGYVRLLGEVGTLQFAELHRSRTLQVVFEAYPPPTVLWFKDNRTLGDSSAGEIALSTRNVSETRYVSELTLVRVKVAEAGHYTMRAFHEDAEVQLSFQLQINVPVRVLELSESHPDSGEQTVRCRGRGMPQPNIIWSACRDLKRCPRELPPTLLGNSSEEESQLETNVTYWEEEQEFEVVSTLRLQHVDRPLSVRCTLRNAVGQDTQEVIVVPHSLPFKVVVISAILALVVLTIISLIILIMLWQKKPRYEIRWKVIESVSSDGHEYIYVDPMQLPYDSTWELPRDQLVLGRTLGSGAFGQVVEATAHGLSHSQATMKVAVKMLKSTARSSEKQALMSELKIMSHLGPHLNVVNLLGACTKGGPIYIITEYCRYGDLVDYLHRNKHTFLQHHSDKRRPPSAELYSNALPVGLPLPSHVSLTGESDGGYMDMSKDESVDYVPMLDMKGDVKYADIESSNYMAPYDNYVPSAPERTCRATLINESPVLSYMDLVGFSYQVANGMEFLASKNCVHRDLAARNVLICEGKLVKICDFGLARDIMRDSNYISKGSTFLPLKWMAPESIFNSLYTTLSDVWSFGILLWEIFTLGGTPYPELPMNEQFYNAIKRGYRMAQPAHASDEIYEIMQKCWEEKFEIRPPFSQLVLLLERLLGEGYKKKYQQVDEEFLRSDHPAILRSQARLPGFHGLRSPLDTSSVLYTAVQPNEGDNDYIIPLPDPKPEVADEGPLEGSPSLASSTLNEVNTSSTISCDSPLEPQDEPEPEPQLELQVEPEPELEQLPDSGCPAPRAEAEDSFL
Sequence of Serine/threonine-protein kinase B-raf (P15056 2-766 V600E limits assumed): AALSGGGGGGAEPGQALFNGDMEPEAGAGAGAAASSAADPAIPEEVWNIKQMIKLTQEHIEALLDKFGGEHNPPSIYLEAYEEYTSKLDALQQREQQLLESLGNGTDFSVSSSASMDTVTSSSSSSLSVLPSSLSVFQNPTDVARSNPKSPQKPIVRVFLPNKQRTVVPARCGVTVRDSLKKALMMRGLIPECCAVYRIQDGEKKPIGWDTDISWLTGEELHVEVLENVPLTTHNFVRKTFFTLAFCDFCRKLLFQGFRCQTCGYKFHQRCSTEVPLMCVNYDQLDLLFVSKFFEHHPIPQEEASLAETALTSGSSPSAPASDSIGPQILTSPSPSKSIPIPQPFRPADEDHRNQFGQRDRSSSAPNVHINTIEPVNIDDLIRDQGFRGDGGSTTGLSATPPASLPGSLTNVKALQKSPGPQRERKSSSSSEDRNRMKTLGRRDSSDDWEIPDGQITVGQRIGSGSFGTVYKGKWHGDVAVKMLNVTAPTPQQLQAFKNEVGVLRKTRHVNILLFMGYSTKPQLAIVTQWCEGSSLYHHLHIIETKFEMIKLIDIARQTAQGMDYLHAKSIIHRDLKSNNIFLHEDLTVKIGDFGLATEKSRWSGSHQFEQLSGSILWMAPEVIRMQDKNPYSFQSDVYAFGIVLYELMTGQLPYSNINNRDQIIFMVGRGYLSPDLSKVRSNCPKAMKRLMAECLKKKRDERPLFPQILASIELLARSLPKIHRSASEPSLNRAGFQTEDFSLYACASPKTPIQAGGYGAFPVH
Sequence of Receptor-type tyrosine-protein kinase FLT3 (Homo sapiens) (P36888 whole entry): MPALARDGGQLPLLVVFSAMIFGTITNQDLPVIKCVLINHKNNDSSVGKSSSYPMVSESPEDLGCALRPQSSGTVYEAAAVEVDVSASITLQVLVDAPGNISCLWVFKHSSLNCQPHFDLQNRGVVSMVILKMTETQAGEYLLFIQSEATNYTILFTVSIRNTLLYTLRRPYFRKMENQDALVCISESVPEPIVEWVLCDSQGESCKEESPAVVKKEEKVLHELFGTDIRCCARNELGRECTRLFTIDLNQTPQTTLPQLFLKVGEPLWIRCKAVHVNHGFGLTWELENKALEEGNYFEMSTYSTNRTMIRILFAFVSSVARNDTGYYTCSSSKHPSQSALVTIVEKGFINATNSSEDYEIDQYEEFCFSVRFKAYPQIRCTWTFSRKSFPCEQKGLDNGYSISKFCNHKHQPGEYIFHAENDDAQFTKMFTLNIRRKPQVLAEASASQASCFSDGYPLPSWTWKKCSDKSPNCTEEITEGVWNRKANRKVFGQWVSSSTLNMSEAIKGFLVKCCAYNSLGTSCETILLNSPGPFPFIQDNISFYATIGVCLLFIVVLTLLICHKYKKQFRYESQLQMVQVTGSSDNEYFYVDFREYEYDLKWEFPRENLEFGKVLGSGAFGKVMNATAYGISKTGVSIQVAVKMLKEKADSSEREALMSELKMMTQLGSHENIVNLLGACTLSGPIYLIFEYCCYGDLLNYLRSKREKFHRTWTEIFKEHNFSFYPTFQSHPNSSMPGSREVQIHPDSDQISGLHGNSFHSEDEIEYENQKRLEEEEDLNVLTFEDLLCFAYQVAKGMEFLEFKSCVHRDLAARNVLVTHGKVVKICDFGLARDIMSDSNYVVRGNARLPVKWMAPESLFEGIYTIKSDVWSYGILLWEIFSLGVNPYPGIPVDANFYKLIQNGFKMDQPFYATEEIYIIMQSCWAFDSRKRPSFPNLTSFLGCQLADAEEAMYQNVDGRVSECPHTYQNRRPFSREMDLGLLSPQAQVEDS

Structure (SMILES) | GI50 ([1]; Homo sapiens, Huh-7) | GI50 ([2]; Homo sapiens, HepG2) | GI50 [4] | IC50 [15] | IC50 [18] | also measured
CNC(=O)c1cc(Oc2ccc(NC(=O)Nc3ccc(OC(F)(F)F)cc3)cc2)ccn1 | 7 µM | 7 µM | > 25 µM | – | – | IC50 [3]: > 5 µM; inhibition [5]: Active
O=C(NC12CC3CC(CC(C3)C1)C2)N[C@H]1CC[C@H](Oc2ccc(C(=O)O)cc2)CC1 | – | – | – | – | – | inhibition [6]: inactive; inhibition [7]: inactive; inhibition [8]: inactive; inhibition [9]: inactive; inhibition [10]: inactive; inhibition [11]: inactive; inhibition [12]: inactive; inhibition [13]: inactive; inhibition [14]: inactive
CNC(=O)c1ccc(O[C@H]2CC[C@H](NC(=O)Nc3ccc(Cl)c(C(F)(F)F)c3)CC2)cc1 | 16 µM | > 25 µM | > 25 µM | – | – | –
CS(=O)(=O)N1CCC(NC(=O)Nc2ccc(OC(F)(F)F)cc2)CC1 | > 25 µM | > 25 µM | > 25 µM | > 10 µM | – | –
O=C(Nc1ccc(OC(F)(F)F)cc1)N[C@H]1CC[C@H](Oc2ccc(C(=O)O)cc2)CC1 | – | – | – | – | – | GI50 [1]: 20 µM; GI50 [2]: 15 µM; inhibition [6]: inactive; inhibition [7]: inactive; inhibition [8]: inactive; inhibition [9]: inactive; inhibition [16]: inactive; GI50 [17]: > 25 µM; inhibition [10]: inactive; inhibition [11]: inactive; inhibition [12]: inactive; inhibition [13]: inactive; inhibition [14]: inactive
CNC(=O)c1ccc(O[C@H]2CC[C@H](NC(=O)Nc3ccc(Cl)c(C(F)(F)F)c3)CC2)cn1 | 8 µM | 7 µM | 10.5 µM | – | – | inhibition [5]: Active
CNC(=O)c1cc(O[C@H]2CC[C@H](NC(=O)Nc3ccc(OC(F)(F)F)cc3)CC2)ccn1 | 7 µM | 7 µM | > 25 µM | > 10 µM | – | –
O=C(Nc1ccc(Cl)c(C(F)(F)F)c1)N[C@H]1CC[C@H](Oc2cccc(C(=O)O)c2)CC1 | > 25 µM | > 25 µM | 10.5 µM | > 10 µM | 0.0086 µM | –
CN(C)C(=O)c1cc(O[C@H]2CC[C@H](NC(=O)Nc3ccc(Cl)c(C(F)(F)F)c3)CC2)ccn1 | 8 µM | 10 µM | – | > 10 µM | 0.0005 µM | –
CNC(=O)c1cc(O[C@H]2CC[C@@H](NC(=O)Nc3ccc(Cl)c(C(F)(F)F)c3)CC2)ccn1 | 8.5 µM | 7.5 µM | 10 µM | – | – | –
CNC(=O)c1cccc(O[C@H]2CC[C@H](NC(=O)Nc3ccc(Cl)c(C(F)(F)F)c3)CC2)c1 | 7.5 µM | 6.5 µM | 11 µM | 0.293 µM | 0.001 µM | –
CNC(=O)c1cc(O[C@H]2CC[C@H](NC(=O)Nc3ccc(Cl)c(C(F)(F)F)c3)CC2)ccn1 | 8 µM | 7 µM | 11 µM | – | – | inhibition [5]: Active
CCN(CC)CCNC(=O)c1c(C)[nH]c(/C=C2\C(=O)Nc3ccc(F)cc32)c1C [SUNITINIB] | – | – | – | – | > 10 µM | –
O=C(Nc1ccc(Cl)c(C(F)(F)F)c1)N[C@H]1CC[C@H](Oc2ccc(C(=O)O)cc2)CC1 | > 25 µM | > 25 µM | 25 µM | 4.3 µM | 0.0005 µM | –
CNC(=O)c1ccc(O[C@H]2CC[C@H](NC(=O)NC34CC5CC(CC(C5)C3)C4)CC2)cc1 | 5.5 µM | 7 µM | > 25 µM | > 10 µM | – | –
CNC(=O)c1cc(Oc2ccc(NC(=O)Nc3ccc(Cl)c(C(F)(F)F)c3)c(F)c2)ccn1 [REGORAFENIB] | – | – | – | – | 0.0005 µM | –
CNC(=O)c1ccc(O[C@H]2CC[C@H](NC(=O)Nc3ccc(OC(F)(F)F)cc3)CC2)cc1 | 5.5 µM | 7 µM | > 25 µM | > 10 µM | – | –
CNC(=O)c1cc(Oc2ccc(NC(=O)NC34CC5CC(CC(C5)C3)C4)cc2)ccn1 | 7 µM | 10 µM | 25 µM | 1 µM | – | IC50 [3]: > 5 µM; inhibition [5]: Active
